{"source": "patent US11026954B2", "about": "“3-beta-hydroxy-5-alpha-pregnan-20-one for use in medical treatment” (ASARINA PHARMA AB, priority 2017, dated 2021)", "key": {"[1]": {"target": "T1, human alpha1,beta2,gamma2 GABAA receptor (Homo sapiens, UniProt P14867+P47870)", "T1 construct": "expressed in transfected cells", "T1 sequence (P14867 28-456)": "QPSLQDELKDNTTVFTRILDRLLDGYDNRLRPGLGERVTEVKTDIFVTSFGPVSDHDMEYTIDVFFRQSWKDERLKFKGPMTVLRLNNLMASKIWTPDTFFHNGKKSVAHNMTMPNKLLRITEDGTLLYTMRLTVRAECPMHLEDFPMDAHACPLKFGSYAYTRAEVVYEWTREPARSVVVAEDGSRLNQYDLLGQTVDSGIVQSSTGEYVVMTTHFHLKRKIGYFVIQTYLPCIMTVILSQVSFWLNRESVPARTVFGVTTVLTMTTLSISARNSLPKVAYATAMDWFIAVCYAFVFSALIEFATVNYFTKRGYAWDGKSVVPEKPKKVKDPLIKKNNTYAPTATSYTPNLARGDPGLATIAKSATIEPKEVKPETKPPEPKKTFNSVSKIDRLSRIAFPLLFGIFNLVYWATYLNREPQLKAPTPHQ", "T1 sequence (P47870 25-512 limits assumed)": "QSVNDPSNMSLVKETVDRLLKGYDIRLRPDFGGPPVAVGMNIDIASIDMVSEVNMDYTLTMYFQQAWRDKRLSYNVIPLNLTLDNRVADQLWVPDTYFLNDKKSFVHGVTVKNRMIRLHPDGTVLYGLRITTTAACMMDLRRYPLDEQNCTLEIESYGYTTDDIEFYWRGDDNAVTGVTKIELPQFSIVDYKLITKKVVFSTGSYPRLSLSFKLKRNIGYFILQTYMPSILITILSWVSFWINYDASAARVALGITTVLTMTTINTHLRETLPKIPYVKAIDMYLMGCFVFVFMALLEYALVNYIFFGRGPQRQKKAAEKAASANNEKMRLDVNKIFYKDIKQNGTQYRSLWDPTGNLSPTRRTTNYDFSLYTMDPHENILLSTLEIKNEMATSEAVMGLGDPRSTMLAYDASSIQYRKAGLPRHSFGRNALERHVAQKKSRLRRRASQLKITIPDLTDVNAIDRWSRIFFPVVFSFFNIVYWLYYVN", "T1 sequence (P18507 40-475 partner)": "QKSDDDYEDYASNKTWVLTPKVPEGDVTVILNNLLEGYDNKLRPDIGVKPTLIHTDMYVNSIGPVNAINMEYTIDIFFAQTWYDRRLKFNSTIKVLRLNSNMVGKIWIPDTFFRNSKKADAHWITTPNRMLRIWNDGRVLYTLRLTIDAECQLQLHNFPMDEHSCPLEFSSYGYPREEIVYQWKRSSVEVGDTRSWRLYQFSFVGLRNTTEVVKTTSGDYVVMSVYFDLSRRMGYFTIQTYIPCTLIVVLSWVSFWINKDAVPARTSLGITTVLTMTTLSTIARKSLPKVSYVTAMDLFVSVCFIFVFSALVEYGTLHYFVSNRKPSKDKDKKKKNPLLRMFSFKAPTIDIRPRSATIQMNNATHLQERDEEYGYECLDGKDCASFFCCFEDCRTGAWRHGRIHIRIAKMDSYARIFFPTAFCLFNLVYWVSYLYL", "test": "Patch-clamp (Dynaflow) on HEK-293 cells expressing GABAA receptor alpha1,beta2,gamma2", "assay_type": "cell-based", "details": "for effect by itself (Baseline shift): absence of GABA", "excerpt": "(§1) Assay for Testing GABAA Receptor Effects of 3Beta-Hydroxy-5Alpha-Pregnan-20-One on Human Alpha1,Beta,Gamma and Alpha4,Beta,Delta GABAA Receptor Subtype.\n(§2) 2) in absence and in presence of the positive GABAA receptor modulating steroids Tetrahydrodeoxycorticosterone (THDOC) and 3alpha-hydroxy-5alpha-androstan-17-ol (3alpha-OH-adiol) by the Dynaflow™ system on HEK-293 cells. In these tests the protocol was optimized to be similar to the physiological conditions in the synaptic cleft.\n(§3) HEK-293 cells, permanently transfected with the human alpha1,beta,gamma and alpha4,beta,delta GABAA receptor subtypes, were seeded at a density of 3×10^4/25 cm^2 in cellbind culture flask. The transfected cells were used for patch-clamp experiments 3 days after seeding. When using the cells for patch-clamp experiments the cells were washed twice with oxygen-bubbled extracellular (EC) solution (see below). About 5 mL EC was then added and the cells were kept in the incubator for about 15 minutes. After 15 minutes the cells came loose from the bottom of the flask and were separated by carefully sucking couple of times with a Pasteur pipette.\n(§4) Dynaflow™ system with Resolve chip was used for patch-clamp experiments: The electrophysiological recordings from HEK-293 cells were performed under voltage-clamp conditions using patch-clamp technique and the Dynaflow™ system (Dynaflow Pro II Platform Zeiss Axiovert 25; Cellectricon AB, Sweden) with Resolve chips as application system.\n(§5) Patch pipettes were pulled from borosilicate glass and polished to a resistance 2-5 MΩ when filled with suitable intracellular solution (IC) (pH was adjusted to 7.2) and immersed in bath solution (extracellular, EC) (pH is adjusted to 7.4). The recordings were made using an Axopatch 200B amplifier, a Digidata 1322A (Axon instruments, Foster city, USA). Data were acquired using the pCLAMP software sampled at 10 kHz, filtered at 2-10 kHz and analyzed with Clampfit (versions 9.0, both from Axon instruments, Foster city, USA). No higher series resistance than 20 MΩ between pipette and cell membrane was accepted. No series resistance compensation was used. The stability of series resistance was monitored repeatedly from the time course of capacitative transients during the experiments. The measured liquid-junction potential between EC and IC was subtracted in all data presented. All experiments were performed at room temperature (21-23° C.).\n(§6) All steroids were dissolved to the concentration of 6 mM in DMSO. […] End solutions were the solutions added into the wells of the chip.\n(§7) After compensating for the liquid junction potential a steady holding potential of −17 mV was used in all experiments. […] By using the holding potential of −17 mV and the intracellular solution with low chloride ion concentration the chloride ions flux into the cell when the receptors were activated.\n(§8) The Dynaflow system allowed application of solutions for as short as 40 ms up to minutes in time.\n(§9) In the experiments, THDOC and 3alpha-OH-adiol were used as the positive GABAA receptor modulating steroids.\n(§10) Different incubation times were studied to achieve the optimal time for attain stable results and minimize the washout time.\n(§11) Cell lines permanently expressing a functional human GABAA receptor was made in following steps. The GABAA receptor subunits alpha1, beta2 and gamma2L or alpha4, beta3 and delta including introduced Kozac sequences just before the start codons, were subcloned into mammalian expression vectors containing Geneticin, Hygromycin B, and Zeocin resistance, respectively."}, "[2]": {"target": "T2, human alpha4,beta3,delta GABAA receptor (Homo sapiens, UniProt P28472+P48169)", "T2 construct": "expressed in transfected cells", "T2 sequence (P48169 36-554)": "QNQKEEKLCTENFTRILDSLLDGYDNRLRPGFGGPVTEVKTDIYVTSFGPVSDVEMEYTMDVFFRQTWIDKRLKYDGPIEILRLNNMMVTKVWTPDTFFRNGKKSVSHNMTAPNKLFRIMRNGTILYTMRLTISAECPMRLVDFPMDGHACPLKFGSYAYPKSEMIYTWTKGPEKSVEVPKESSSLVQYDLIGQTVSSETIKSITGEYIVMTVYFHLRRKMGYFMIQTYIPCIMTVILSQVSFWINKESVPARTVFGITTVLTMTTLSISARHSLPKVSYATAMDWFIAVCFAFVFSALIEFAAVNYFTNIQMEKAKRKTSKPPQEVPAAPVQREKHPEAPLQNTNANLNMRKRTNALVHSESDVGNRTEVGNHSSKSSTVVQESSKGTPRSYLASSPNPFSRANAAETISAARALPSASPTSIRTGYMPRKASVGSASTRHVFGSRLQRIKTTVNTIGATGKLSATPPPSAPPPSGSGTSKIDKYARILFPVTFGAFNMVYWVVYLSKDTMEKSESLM", "T2 sequence (P28472 26-473)": "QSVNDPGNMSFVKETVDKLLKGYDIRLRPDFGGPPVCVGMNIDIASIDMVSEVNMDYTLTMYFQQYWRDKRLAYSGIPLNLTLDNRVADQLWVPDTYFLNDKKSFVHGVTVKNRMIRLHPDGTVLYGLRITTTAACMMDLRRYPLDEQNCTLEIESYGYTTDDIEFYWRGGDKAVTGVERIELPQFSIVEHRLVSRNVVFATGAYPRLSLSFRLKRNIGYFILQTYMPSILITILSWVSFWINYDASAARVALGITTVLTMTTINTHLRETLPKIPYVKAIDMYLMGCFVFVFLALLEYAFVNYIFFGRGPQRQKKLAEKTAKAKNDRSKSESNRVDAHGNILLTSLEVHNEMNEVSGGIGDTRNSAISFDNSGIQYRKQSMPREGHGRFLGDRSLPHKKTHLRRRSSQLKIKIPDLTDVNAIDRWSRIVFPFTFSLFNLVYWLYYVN", "T2 sequence (O14764 17-452 partner limits assumed)": "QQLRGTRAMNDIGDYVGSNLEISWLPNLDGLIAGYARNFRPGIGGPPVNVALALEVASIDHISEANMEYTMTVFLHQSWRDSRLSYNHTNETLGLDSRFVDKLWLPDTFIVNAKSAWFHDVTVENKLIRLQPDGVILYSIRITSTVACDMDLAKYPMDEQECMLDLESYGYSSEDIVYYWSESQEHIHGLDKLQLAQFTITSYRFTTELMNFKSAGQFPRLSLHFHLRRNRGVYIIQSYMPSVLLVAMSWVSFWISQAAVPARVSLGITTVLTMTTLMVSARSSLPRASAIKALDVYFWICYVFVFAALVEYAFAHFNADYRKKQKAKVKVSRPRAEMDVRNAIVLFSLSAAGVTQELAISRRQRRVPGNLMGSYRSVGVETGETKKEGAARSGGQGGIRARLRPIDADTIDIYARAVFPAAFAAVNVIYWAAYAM", "test": "Patch-clamp (Dynaflow) on HEK-293 cells expressing GABAA receptor alpha4,beta3,delta", "assay_type": "cell-based", "excerpt": "as §1, §2, §3, §4, §5, §6, §7, §8, §9, §10, §11"}, "[3]": {"details": "1 μM 3beta-hydroxy-5alpha-pregnan-20-one"}}, "note": "pEC50: −log10 of the molar value.", "data": [{"molecule": "CC(=O)[C@H]1CC[C@H]2[C@@H]3CC[C@H]4C[C@@H](O)CC[C@]4(C)[C@H]3CC[C@]12C", "note": "[3beta-hydroxy-5alpha-pregnan-20-one]", "values": [{"measurement": "Antagonism of THDOC enhanced GABA effect (max, concentration-dependent experiment)", "setting": "[1]; 1 μM 3beta-hydroxy-5alpha-pregnan-20-one + 30 μM GABA + 200 nM THDOC, n=10", "value": "−21±4.6", "unit": "%"}, {"measurement": "Effect on 8 μM Androstandiol + 30 μM GABA", "setting": "[1]; 1 μM 3beta-hydroxy-5alpha-pregnan-20-one, phasic effect", "value": "−30 ± 1.7", "unit": "%"}, {"measurement": "Effect on 8 μM Androstandiol, baseline shift", "setting": "[1]; 1 μM 3beta-hydroxy-5alpha-pregnan-20-one, tonic effect, without GABA", "value": "−33 ± 7.6", "unit": "%"}, {"measurement": "Imax, antagonism of THDOC effect", "setting": "[1]; 0.1-1 μM 3beta-hydroxy-5alpha-pregnan-20-one + 30 μM GABA + 200 nM THDOC", "value": "−21", "unit": "%"}, {"measurement": "Antagonism of THDOC enhanced GABA effect (single dose)", "setting": "[1]; single dose 1 μM + 30 μM GABA + 200 nM THDOC, n=6", "value": "−22.3±5.3", "unit": "%"}, {"measurement": "Effect on 0.6 μM Androstandiol + 3 μM GABA", "setting": "[2]; [3]", "value": "−18 ± 2.0", "unit": "%"}, {"measurement": "Effect on 0.8 μM Androstandiol + 3 μM GABA", "setting": "[2]; [3]", "value": "−22 ± 2.6", "unit": "%"}, {"measurement": "Effect by itself (current response)", "setting": "[2]; 1 μM 3beta-hydroxy-5alpha-pregnan-20-one alone, N=11, NS vs EC solution", "value": "−0.4±0.3", "unit": "pA"}, {"measurement": "Effect on 3 μM GABA response", "setting": "[2]; 1 μM 3beta-hydroxy-5alpha-pregnan-20-one, N=11, NS", "value": "−6.7 ± 3.3", "unit": "%"}, {"measurement": "Effect on GABA alone (in words)", "setting": "[2]; 1 μM 3beta-hydroxy-5alpha-pregnan-20-one, data not shown", "value": "without any significant effect"}, {"measurement": "Effect on 0.1 μM THDOC + 3 μM GABA", "setting": "[2]; 1 μM 3beta-hydroxy-5alpha-pregnan-20-one, steady state", "value": "−26 ± 2.4", "unit": "%"}, {"measurement": "Effect on 0.1 μM THDOC alone baseline", "setting": "[2]; 1 μM 3beta-hydroxy-5alpha-pregnan-20-one, without GABA", "value": "−43 ± 3.5", "unit": "%"}]}, {"molecule": "C[C@]12CC[C@@H](O)C[C@@H]1CC[C@@H]1[C@@H]2CC[C@]2(C)C(O)CC[C@@H]12", "note": "(stereo partly drawn) [Androstandiol, 3alpha-hydroxy-5alpha-androstan-17-ol]", "values": [{"measurement": "effect by itself (Baseline shift)", "setting": "[1]; 3 μM androstandiol", "value": "+8 ± 3.6 pA"}, {"measurement": "effect by itself (Baseline shift)", "setting": "[1]; 8 μM androstandiol", "value": "+13 ± 2.3 pA"}, {"measurement": "effect by itself (Baseline shift)", "setting": "[1]; 10 μM androstandiol", "value": "+11 ± 1.5 pA"}, {"measurement": "effect by itself (Baseline shift)", "setting": "[1]; 30 μM androstandiol", "value": "+24 ± 6.8 pA"}, {"measurement": "effect by itself (Baseline shift)", "setting": "[1]; 100 μM androstandiol", "value": "+43 ± 5.7 pA"}, {"measurement": "Potency relative to THDOC (less potent)", "setting": "[1]; enhancing the effect of GABA, 30 μM GABA", "value": 48, "unit": "times"}, {"measurement": "Baseline shift (current response in absence of GABA)", "setting": "[2]; 3 μM androstandiol", "value": "+8 ± 3.6 pA"}, {"measurement": "Baseline shift (current response in absence of GABA)", "setting": "[2]; 10 μM androstandiol", "value": "+13 ± 4.8 pA"}, {"measurement": "Potency at alpha4,beta3,delta relative to alpha1,beta2,gamma2 (higher)", "setting": "[2]; enhancement of GABA-mediated current", "value": 10, "unit": "times"}]}, {"molecule": "C[C@]12CC[C@@H](O)C[C@H]1CC[C@@H]1[C@@H]2CC[C@]2(C)[C@@H](C(=O)CO)CC[C@@H]12", "note": "[THDOC, Tetrahydrodeoxycorticosterone]", "values": [{"measurement": "Emax, enhancement of GABA mediated current", "setting": "[1]; 0.03-1 μM THDOC + 30 μM GABA", "value": "+115%"}, {"measurement": "pEC50", "setting": "[1]; read-out: EC50, enhancement of GABA mediated current, 0.03-1 μM THDOC + 30 μM GABA", "value": 7.15}, {"measurement": "Baseline shift (current response in absence of GABA)", "setting": "[2]; 0.03 μM THDOC", "value": "+5 ± 3.3 pA"}, {"measurement": "Baseline shift (current response in absence of GABA)", "setting": "[2]; 0.1 μM THDOC", "value": "+15 ± 9.5 pA"}, {"measurement": "Baseline shift (current response in absence of GABA)", "setting": "[2]; 0.3 μM THDOC", "value": "+12 ± 7.9 pA"}, {"measurement": "Baseline shift (current response in absence of GABA)", "setting": "[2]; 1 μM THDOC", "value": "+69 ± 35 pA"}, {"measurement": "Emax, enhancement of GABA mediated current response", "setting": "[2]; THDOC + 3 μM GABA", "value": 297, "unit": "%"}, {"measurement": "pEC50", "setting": "[2]; read-out: EC50, enhancement of GABA mediated current response, THDOC + 3 μM GABA", "value": 7.33}]}]}
